Results taken from patent publication US5208344A, “Naphthalenepropionic acid derivatives as anti-inflammatory/antiallergic agents” (American Home Products Corporation, priority 1991, dated 1993).
Structures can show the parent of a compound that is named as a salt.

What was measured:
[1] = tested on: acute gastroirritation induced by naproxen; assay: cytoprotective activity against NSAID (naproxen)-induced acute gastroirritation in rats; format: in vivo, rat; settings: drug 100 mg/kg peroral 1 hour before naproxen 25 mg/kg
Text: The assay of Example 44 is also used to measure the cytoprotective activity of the compounds against acute gastroirritation induced by a nonsteroidal anti-inflammatory drug (NSAID).

[2] = target: T1, 5-lipoxygenase (Rattus norvegicus, UniProt P12527); assay: inhibition of 5-HETE synthesis by rat glycogen elicited polymorphonuclear leukocytes; format: cell-based; settings: 10 μM, rat PMN, negative = potentiation of 5-HETE synthesis
T1 construct: Peritoneal PMN are obtained from female Wistar rats (150-250 g); endogenous in cells; host or cells: rat glycogen-elicited peritoneal polymorphonuclear leukocytes, intact
T1 sequence (P12527 1-673): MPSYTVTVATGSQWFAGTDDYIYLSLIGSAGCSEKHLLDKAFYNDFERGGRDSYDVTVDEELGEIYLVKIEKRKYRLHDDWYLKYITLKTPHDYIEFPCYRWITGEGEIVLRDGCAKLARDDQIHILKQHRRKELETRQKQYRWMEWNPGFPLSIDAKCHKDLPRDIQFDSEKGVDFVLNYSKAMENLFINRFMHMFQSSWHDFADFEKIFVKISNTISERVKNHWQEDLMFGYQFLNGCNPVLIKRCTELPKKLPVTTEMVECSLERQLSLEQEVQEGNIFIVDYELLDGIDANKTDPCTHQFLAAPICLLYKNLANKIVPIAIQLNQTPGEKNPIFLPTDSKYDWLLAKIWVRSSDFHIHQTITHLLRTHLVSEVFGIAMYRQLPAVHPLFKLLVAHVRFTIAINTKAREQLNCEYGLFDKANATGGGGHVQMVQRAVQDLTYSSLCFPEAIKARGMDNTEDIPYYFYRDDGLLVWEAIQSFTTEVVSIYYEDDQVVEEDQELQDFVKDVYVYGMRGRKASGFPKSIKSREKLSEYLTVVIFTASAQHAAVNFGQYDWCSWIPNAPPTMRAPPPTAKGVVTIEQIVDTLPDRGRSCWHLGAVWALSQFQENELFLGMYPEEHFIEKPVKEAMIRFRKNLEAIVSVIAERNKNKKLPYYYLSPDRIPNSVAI
Method in brief: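 Peritoneal PMN from female Wistar rats given i.p. glycogen 24 h earlier were preincubated with compound for 10 min at 37° C (2×10^7 cells/ml, 10 mM L-cysteine). They were then stimulated 10 min with 10 μM A23187 plus 0.5 μM [14C]arachidonic acid. 5-HETE was separated by TLC and quantified by scintillation.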

[3] = tested on: ovalbumin-induced bronchoconstriction; assay: inhibition of antigen (ovalbumin)-induced bronchoconstriction in anesthetized guinea pigs; format: in vivo; settings: orally administered 4 hours before induction, guinea pig, 240 min
Procedure: The compounds of the invention are tested to measure their in vivo ability to inhibit the bronchoconstriction induced in anesthetized guinea pigs by exogenously administered antigen.
Male Hartley guinea pigs (400-700 gm) are sensitized three weeks prior to antigen (ovalbumin-OA) challenge as follows: each guinea pig is given two intramuscular injections--0.35 ml of Grade V OA, 50 mg/ml, into each hindlimb.
Guinea pigs, fasted overnight but allowed water adlibitum, are anesthetized with 1.2 g/kg of urethane (intraperitoneal). Supplemental does of […] of urethane are administered intraperitoneally as needed. One carotid artery and one jugular vein are cannulated to allow for the monitoring of blood pressure and the administration of drugs, respectively. A duodenal cannula is inserted for intraduodenal dosing studies. The trachea of each animal is cannulated and connected to a Harvard respirator. […] Respiratory overflow pressure is measured from a side arm off the tracheal cannula which is connected via a Gould or Beckman pressure transducer to a suitable strip chart recorder. […]
Test compounds are administered intravenously, perorally, or intraduodenally at appropriate times prior to OA challenge. […] Control experiments are used to determine the effects of solvents on the measured parameters, and test data is corrected for any significant solvent effects.
Bronchoconstriction is assessed as increases in respiratory overflow pressure (cm H2 O). Changes in blood pressure (mm Hg) are also recorded.
Test compound-induced changes in the respiratory overflow pressure are assessed as percent changes from control experiments. […] The net change in overflow pressure is measured 5 minutes after antigen challenge and is calculated as follows. […] The percent change value for the drug treated group versus the control group is calculated as follows: […]

[4] = tested on: cyclooxygenase; assay: inhibition of synthesis of cyclooxygenase products TxB2 and PGE2 (rat polymorphonuclear leukocytes); format: cell-based; settings: 10 μM, rat PMN, negative = potentiation of PGE2 synthesis
Method in brief: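 Glycogen-elicited peritoneal PMN from female Wistar rats, 2×10^7 cells/ml in HBSS with Ca^++, Mg^++ and 10 mM L-cysteine, preincubated with compound 10 min at 37° C. Stimulated 10 min with A23187 (10 μM) plus 0.5 μM [14C] arachidonic acid; TxB2 and PGE2 quantified by TLC, autoradiography and scintillation counting.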

Row | inhibition at 10 µM ([2]; read-out: % Inhibition of 5-LO (as 5-HETE)) [%] | % Inhibition of 5-LO (as 5-HETE) ([2]; sodium salt) [%] | SMILES | % of Rats With Lesions [1] [%] | Comments (protection) [1] | ED50 (ovalbumin-induced bronchoconstriction) [3] [mg/kg] | % Inhibition of CO (as PGE2) [4] [%] | ED50 (ovalbumin-induced bronchoconstriction) ([3]; sodium salt) [mg/kg] | % Inhibition of CO (as PGE2) ([4]; sodium salt) [%]
1 | 100 |  | C[C@H](C(=O)O)c1ccc2cc(OCc3ccc4ccccc4n3)ccc2c1 [Example 7, S-(α)-α-Methyl-6-(2-quinolinylmethoxy)-2-naphthaleneacetic acid] | 87.5 | no protection | 100 | -17 |  | 
2 |  | 100 | C[C@H](C(=O)O)c1ccc2cc(OCc3ccc4ccccc4n3)ccc2c1 [Example 16, S-(+)-α-Methyl-6-(2-quinolinylmethoxy)-2-naphthaleneacetic acid, sodium salt] |  |  |  |  | 15 | -13
